In PubChem BioAssay AID328 (DTP/NCI, 2004):
Where “and” joins values, the source holds several entries; their conditions need not be identical. Identical values can stand only once. Toxic doses and inconclusive results are not listed. Non-standard residues stand in square brackets, D forms with d. Residues, ends and D or L forms follow the SMILES beside them. ξ: configuration not given here. Ac5c = NC1(C(=O)O)CCCC1; ξS = NC(CO)C(=O)O

Tested on: BDF1 mice, P388 leukemia ip, median survival T/C
Test: NCI In Vivo Anticancer Drug Screen. Data for tumor model P388 Leukemia (intraperitoneal) in B6D2F1 (BDF1) mice
Details: endpoint: median survival time, higher = longer survival
How it was run: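 Each value expresses how treatment altered survival: treated-mouse outcome over vehicle-mouse outcome, both groups bearing the transplanted tumour.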

[1] = dose: 100.0 mg/kg/injection, schedule: Q04DX003 (ip), vehicle: saline with Tween-80
[2] = dose: 200.0 mg/kg/injection, schedule: Q04DX003 (ip), vehicle: saline with Tween-80
[3] = dose: 400.0 mg/kg/injection, schedule: Q04DX003 (ip), vehicle: saline with Tween-80
[4] = dose: 100.0 mg/kg/injection, schedule: Q04DX003 (ip), vehicle: Klucel (hydroxypropylcellulose) (HPC)
[5] = dose: 200.0 mg/kg/injection, schedule: Q04DX003 (ip), vehicle: Klucel (hydroxypropylcellulose) (HPC)
[6] = dose: 400.0 mg/kg/injection, schedule: Q04DX003 (ip), vehicle: Klucel (hydroxypropylcellulose) (HPC)
[7] = dose: 50.0 mg/kg/injection, schedule: Q01DX009 (ip), vehicle: Klucel (hydroxypropylcellulose) (HPC)
[8] = dose: 100.0 mg/kg/injection, schedule: Q01DX009 (ip), vehicle: saline with Tween-80
[9] = dose: 200.0 mg/kg/injection, schedule: Q01DX009 (ip), vehicle: saline with Tween-80
[10] = dose: 400.0 mg/kg/injection, schedule: Q01DX009 (ip), vehicle: saline with Tween-80
[11] = dose: 50.0 mg/kg/injection, schedule: Q01DX009 (ip), vehicle: saline
[12] = dose: 100.0 mg/kg/injection, schedule: Q01DX009 (ip), vehicle: saline
[13] = dose: 200.0 mg/kg/injection, schedule: Q01DX009 (ip), vehicle: saline
[14] = dose: 100.0 mg/kg/injection, schedule: Q01DX009 (ip), vehicle: Klucel (hydroxypropylcellulose) (HPC)
[15] = dose: 200.0 mg/kg/injection, schedule: Q01DX009 (ip), vehicle: Klucel (hydroxypropylcellulose) (HPC)
[16] = dose: 25.0 mg/kg/injection, schedule: Q04DX003 (ip), vehicle: saline with Tween-80
[17] = dose: 50.0 mg/kg/injection, schedule: Q04DX003 (ip), vehicle: saline with Tween-80

## CCOC(=O)c1cc(N)c(N2CCCC2)cc1Cl
[1]
  T/C: 100 % of control
dose: 133.0 mg/kg/injection, schedule: Q04DX003 (ip), vehicle: saline with Tween-80
  T/C: 89 % of control
[2]
  T/C: 105 % of control
dose: 300.0 mg/kg/injection, schedule: Q04DX003 (ip), vehicle: saline with Tween-80
  T/C: 94 % of control
[3]
  T/C: 100 % of control

## Cc1cccc(NC(=O)c2ccccc2C(=O)O)c1C
[4]
  T/C: 91 % of control
[5]
  T/C: 91 % of control
[6]
  T/C: 100 % of control

## CCCN1CCC2(CC1)COCc1ccccc12
dose: 50.0 mg/kg/injection, schedule: Q04DX002 (ip), vehicle: saline with Tween-80
  T/C: 98 % of control
dose: 100.0 mg/kg/injection, schedule: Q04DX002 (ip), vehicle: saline with Tween-80
  T/C: 91 % of control

## O=C(NO)c1ccc(O)c(O)c1
dose: 200.0 mg/kg/injection, schedule: Q01DX005 (ip), vehicle: water
  T/C: 153 % of control
dose: 400.0 mg/kg/injection, schedule: Q01DX005 (ip), vehicle: water
  T/C: 166 % of control

## [Cl][Hg][CH]1CCCC2OC(C(Cl)(Cl)Cl)OC21 (configuration not stated)
dose: 0.2 mg/kg/injection, schedule: Q01DX001 (ip), vehicle: saline with Tween-80
  T/C: 111 % of control
dose: 0.4 mg/kg/injection, schedule: Q01DX001 (ip), vehicle: saline with Tween-80
  T/C: 109 % of control
dose: 0.78 mg/kg/injection, schedule: Q01DX001 (ip), vehicle: saline with Tween-80
  T/C: 101 % of control
dose: 0.8 mg/kg/injection, schedule: Q01DX001 (ip), vehicle: saline with Tween-80
  T/C: 109 % of control
dose: 1.6 mg/kg/injection, schedule: Q01DX001 (ip), vehicle: saline with Tween-80
  T/C: 116 % of control

## CN(C)CCN1C(=O)c2cccc3cc([N+](=O)[O-])cc(c23)C1=O
dose: 3.13 mg/kg/injection, schedule: Q01DX009 (ip), vehicle: saline with Tween-80
  T/C: 160 % of control
dose: 6.25 mg/kg/injection, schedule: Q01DX009 (ip), vehicle: saline with Tween-80
  T/C: 215 % of control

## C=CCOC(=O)c1ccco1
dose: 6.25 mg/kg/injection, schedule: Q01DX009 (ip), vehicle: Klucel (hydroxypropylcellulose) (HPC)
  T/C: 116 % of control
dose: 12.5 mg/kg/injection, schedule: Q01DX009 (ip), vehicle: Klucel (hydroxypropylcellulose) (HPC)
  T/C: 108 % of control
dose: 25.0 mg/kg/injection, schedule: Q01DX009 (ip), vehicle: Klucel (hydroxypropylcellulose) (HPC)
  T/C: 108 % of control
[7]
  T/C: 100 % of control

## O=C(/C=C/c1ccccc1)c1cccc(Br)c1
[8]
  T/C: 91 % of control
[1]
  T/C: 109 % of control
[9]
  T/C: 98 % of control
[2]
  T/C: 104 % of control
[10]
  T/C: 119 % of control
[3]
  T/C: 104 % of control

## CCN(c1ccc2c(c1)C(=O)c1ccccc1-2)S(=O)(=O)c1ccc(C)cc1
[4]
  T/C: 100 % of control
[5]
  T/C: 104 % of control
[6]
  T/C: 95 % of control

## CCN(CC)CCCNc1ncnc2onc(C)c12
[1]
  T/C: 101 % of control
[2]
  T/C: 97 % of control
[3]
  T/C: 106 % of control

## O=C1C=C(Nc2ccccc2)CCC1
[11]
  T/C: 99 % of control
[12]
  T/C: 100 % of control
[13]
  T/C: 103 % of control

## O=Nc1c(N=O)c(N=O)c(N=O)c(N=O)c1N=O
dose: 1.25 mg/kg/injection, schedule: Q01DX010 (ip), vehicle: saline
  T/C: 90 % of control
dose: 2.5 mg/kg/injection, schedule: Q01DX010 (ip), vehicle: saline
  T/C: 100 % of control
dose: 5.0 mg/kg/injection, schedule: Q01DX010 (ip), vehicle: saline
  T/C: 100 % of control
dose: 10.0 mg/kg/injection, schedule: Q01DX010 (ip), vehicle: saline
  T/C: 95 % of control
dose: 80.0 mg/kg/injection, schedule: Q01DX010 (ip), vehicle: saline
  T/C: 104 % of control

## Nc1ccc(CCc2ccc(N)cc2[N+](=O)[O-])c([N+](=O)[O-])c1
[14]
  T/C: 100 % of control
[15]
  T/C: 100 % of control
dose: 400.0 mg/kg/injection, schedule: Q01DX009 (ip), vehicle: Klucel (hydroxypropylcellulose) (HPC)
  T/C: 100 % of control

## CC1CC2CCCC(O)=C2C(=O)O1 (configuration not stated)
dose: 37.0 mg/kg/injection, schedule: Q01DX010 (ip), vehicle: saline
  T/C: 95 % of control
dose: 75.0 mg/kg/injection, schedule: Q01DX010 (ip), vehicle: saline
  T/C: 100 % of control
dose: 150.0 mg/kg/injection, schedule: Q01DX010 (ip), vehicle: saline
  T/C: 105 % of control

## O=[N+]([O-])c1cccc(C[n+]2ccccc2C2OCCO2)c1
dose: 8.75 mg/kg/injection, schedule: Q01DX009 (ip), vehicle: saline
  T/C: 104 % of control
dose: 17.5 mg/kg/injection, schedule: Q01DX009 (ip), vehicle: saline
  T/C: 100 % of control
dose: 26.25 mg/kg/injection, schedule: Q04DX003 (ip), vehicle: saline
  T/C: 100 % of control
dose: 35.0 mg/kg/injection, schedule: Q01DX009 (ip), vehicle: saline
  T/C: 109 % of control
dose: 52.5 mg/kg/injection, schedule: Q04DX003 (ip), vehicle: saline
  T/C: 95 % of control

## CNNCc1ccc(C(=O)NC(C)C)cc1
dose: 37.5 mg/kg/injection, schedule: Q01DX010 (ip), vehicle: saline
  T/C: 100 % of control
[12]
  T/C: 112 % of control and 116 % of control
dose: 120.0 mg/kg/injection, schedule: Q01DX009 (ip), vehicle: saline
  T/C: 106 % of control
dose: 125.0 mg/kg/injection, schedule: Q01DX009 (ip), vehicle: saline
  T/C: 123 % of control
dose: 225.0 mg/kg/injection, schedule: Q01DX009 (ip), vehicle: saline
  T/C: 180 % of control
dose: 250.0 mg/kg/injection, schedule: Q01DX009 (ip), vehicle: saline
  T/C: 161 % of control
dose: 400.0 mg/kg/injection, schedule: Q01DX001 (ip), vehicle: saline
  T/C: 109 % of control

## COC1CCC2=C(C1)C(=O)CC1c3ccccc3CN21 (configuration not stated)
[16]
  T/C: 100 % of control
[17]
  T/C: 104 % of control

## CC[C@H](c1ccc(O)cc1)[C@@H](CC)c1ccc(O)cc1
[7]
  T/C: 90 % of control
[14]
  T/C: 100 % of control
dose: 100.0 mg/kg/injection, schedule: Q04DX003 (ip), vehicle: other
  T/C: 100 % of control
dose: 132.0 mg/kg/injection, schedule: Q04DX003 (ip), vehicle: Klucel (hydroxypropylcellulose) (HPC)
  T/C: 104 % of control and 120 % of control
[15]
  T/C: 104 % of control
[5]
  T/C: 104 % of control and 120 % of control
dose: 300.0 mg/kg/injection, schedule: Q04DX003 (ip), vehicle: Klucel (hydroxypropylcellulose) (HPC)
  T/C: 109 % of control and 110 % of control
dose: 400.0 mg/kg/injection, schedule: Q04DX003 (ip), vehicle: other
  T/C: 105 % of control

## CSc1ncnc2nc[nH]c12
dose: 25.0 mg/kg/injection, schedule: Q01DX010 (ip), vehicle: saline
  T/C: 100 % of control
dose: 50.0 mg/kg/injection, schedule: Q01DX010 (ip), vehicle: saline
  T/C: 100 % of control
dose: 100.0 mg/kg/injection, schedule: Q01DX010 (ip), vehicle: saline
  T/C: 95 % of control and 100 % of control
dose: 200.0 mg/kg/injection, schedule: Q01DX010 (ip), vehicle: saline
  T/C: 104 % of control and 105 % of control

## COc1cccc(/C=C(/SC)S(C)=O)c1OC (configuration not stated)
dose: 100.0 mg/kg/injection, schedule: Q04DX003 (ip), vehicle: saline
  T/C: 106 % of control
dose: 200.0 mg/kg/injection, schedule: Q04DX003 (ip), vehicle: saline
  T/C: 115 % of control
dose: 400.0 mg/kg/injection, schedule: Q04DX003 (ip), vehicle: saline
  T/C: 120 % of control

## Cc1cc(N/N=C/c2ccc(N(CCCl)CCCl)cc2)c2cc3c(cc2n1)OCO3
dose: 12.5 mg/kg/injection, schedule: Q04DX003 (ip), vehicle: saline with Tween-80
  T/C: 114 % of control
[16]
  T/C: 105 % of control
[17]
  T/C: 115 % of control

## c1ccc(C(c2ccccc2)[n+]2ccccc2)cc1
dose: 3.13 mg/kg/injection, schedule: Q01DX009 (ip), vehicle: saline
  T/C: 91 % of control
dose: 12.5 mg/kg/injection, schedule: Q01DX009 (ip), vehicle: saline
  T/C: 114 % of control

## CCOC(=O)C1=C(O)c2c(sc(C)c2-c2ccccc2)N(S(=O)(=O)c2ccc(C)cc2)CC1
[8]
  T/C: 100 % of control
[9]
  T/C: 109 % of control
[10]
  T/C: 95 % of control

## NC(CO)C(=O)NC1(C(=O)O)CCCC1 (configuration not stated) (H-[ξS]-[Ac5c]-OH)
[8]
  T/C: 109 % of control
[9]
  T/C: 118 % of control
[10]
  T/C: 95 % of control

## NC(=O)C(N)CCSCC(=O)O (configuration not stated)
[11]
  T/C: 88 % of control
[12]
  T/C: 91 % of control
[13]
  T/C: 94 % of control
